pEC50, pIC50: −log10 of the molar value. Values belong to the compound of their own block, whether it stands above or below them. Active and inactive are the calls of the source. No cut-off for these calls is given here.
How the values were obtained:
[1] = tested on: MCF7; assay: Cytotoxicity against human MCF7 cells assessed as inhibition of cell growth preincubated for 72 hrs followed by ultrasonic sound treatment for 30 sec by MTT assay; type: functional, cell-based; conditions: for Activity: time 259230.0 sec
[2] = tested on: MCF7; assay: Cytotoxicity against human MCF7 cells assessed as inhibition of cell growth more than 1 uM measured for 72 hrs by MTT assay; type: functional, cell-based
[3] = Inhibition of LPS-stimulated NO production in mouse RAW264.7 cells incubated for 24 hrs by Griess reagent based microplate reader analysis; type: functional, cell-based; conditions: RAW264.7, 24 h
[4] = Inhibition of LPS-stimulated NO production in mouse RAW264.7 cells at 10 uM incubated for 24 hrs by Griess reagent based microplate reader analysis relative to control; type: functional
[5] = tested on: MCF7; assay: Induction of apoptosis in human MCF7 cells at 10 uM incubated for 24 hrs by Annexin V-FITC/propidium iodide double staining based flow cytometry analysis; type: functional, cell-based
[6] = tested on: MCF7; assay: Induction of ROS generation in human MCF7 cells assessed as increase in ROS level preincubated for 4 hrs followed by ultrasonic sound treatment for 30 sec by DCFH-DA dye based flow cytometry analysis (Rvb= 3.5%); type: functional; conditions: time 14430 sec; 4.008 h
[7] = tested on: MCF7; assay: Induction of apoptosis in human MCF7 cells assessed as late apoptotic cells preincubated for 4 hrs followed by ultrasonic sound treatment for 30 sec and measured after 24 hrs by Annexin V-FITC/propidium iodide double staining based flow cytometry analysis (reference value: 0 %); type: functional; conditions: 28 h
[8] = tested on: MCF7; assay: Sono-cytotoxicity against human MCF7 cells assessed as inhibition of cell growth preincubated for 4 hrs followed by ultrasonic sound treatment for 2 mins by MTT assay; type: functional, cell-based
[9] = tested on: MCF7; assay: Induction of ROS generation in human MCF7 cells assessed as […] preincubated for 4 hrs followed by ultrasonic sound treatment for 30 sec by DCFH-DA dye based inverted microscopy; type: functional, cell-based; conditions: time 14430.0 sec
[10] = tested on: MCF7; assay: Sono-cytotoxicity against human MCF7 cells assessed as inhibition of cell growth preincubated for 4 hrs followed by ultrasonic sound treatment for 5 mins by MTT assay; type: functional, cell-based
[11] = tested on: MCF7; assay: Induction of apoptosis in human MCF7 cells assessed as necrotic cells preincubated for 4 hrs followed by ultrasonic sound treatment for 30 sec and measured after 24 hrs by Annexin V-FITC/propidium iodide double staining based flow cytometry analysis (reference value: 1.05%); type: functional; conditions: 28 h
[12] = tested on: MCF7; assay: Sono-cytotoxicity against human MCF7 cells assessed as inhibition of cell growth preincubated for 4 hrs followed by ultrasonic sound treatment for 30 sec by MTT assay; type: functional, cell-based
[13] = tested on: MCF7; assay: Induction of apoptosis in human MCF7 cells assessed as early apoptotic cells preincubated for 4 hrs followed by ultrasonic sound treatment for 30 sec and measured after 24 hrs by Annexin V-FITC/propidium iodide double staining based flow cytometry analysis (reference value: 1.83 %); type: functional; conditions: 28 h
[14] = tested on: MCF7; assay: Cytotoxicity against human MCF7 cells assessed as inhibition of cell growth incubated for 72 hrs by MTT assay; type: functional, cell-based; conditions: MCF7, 72 h
[15] = tested on: MCF7; assay: Induction of ROS generation in human MCF7 cells assessed as increase in ROS level incubated for 4 hrs by DCFH-DA dye based flow cytometry analysis (Rvb=2.9%); type: functional
[16] = molecular target: Nuclear factor NF-kappa-B complex (Homo sapiens) (UniProt Q00653+P19838+Q04206); assay: Inhibition of H2O2-induced NFkappaB activation in human MCF7 cells at 1 uM measured for 12 hrs by ELISA analysis; type: cell-based
Nuclear factor NF-kappa-B complex (Homo sapiens), sequence (P19838 whole entry, looked up): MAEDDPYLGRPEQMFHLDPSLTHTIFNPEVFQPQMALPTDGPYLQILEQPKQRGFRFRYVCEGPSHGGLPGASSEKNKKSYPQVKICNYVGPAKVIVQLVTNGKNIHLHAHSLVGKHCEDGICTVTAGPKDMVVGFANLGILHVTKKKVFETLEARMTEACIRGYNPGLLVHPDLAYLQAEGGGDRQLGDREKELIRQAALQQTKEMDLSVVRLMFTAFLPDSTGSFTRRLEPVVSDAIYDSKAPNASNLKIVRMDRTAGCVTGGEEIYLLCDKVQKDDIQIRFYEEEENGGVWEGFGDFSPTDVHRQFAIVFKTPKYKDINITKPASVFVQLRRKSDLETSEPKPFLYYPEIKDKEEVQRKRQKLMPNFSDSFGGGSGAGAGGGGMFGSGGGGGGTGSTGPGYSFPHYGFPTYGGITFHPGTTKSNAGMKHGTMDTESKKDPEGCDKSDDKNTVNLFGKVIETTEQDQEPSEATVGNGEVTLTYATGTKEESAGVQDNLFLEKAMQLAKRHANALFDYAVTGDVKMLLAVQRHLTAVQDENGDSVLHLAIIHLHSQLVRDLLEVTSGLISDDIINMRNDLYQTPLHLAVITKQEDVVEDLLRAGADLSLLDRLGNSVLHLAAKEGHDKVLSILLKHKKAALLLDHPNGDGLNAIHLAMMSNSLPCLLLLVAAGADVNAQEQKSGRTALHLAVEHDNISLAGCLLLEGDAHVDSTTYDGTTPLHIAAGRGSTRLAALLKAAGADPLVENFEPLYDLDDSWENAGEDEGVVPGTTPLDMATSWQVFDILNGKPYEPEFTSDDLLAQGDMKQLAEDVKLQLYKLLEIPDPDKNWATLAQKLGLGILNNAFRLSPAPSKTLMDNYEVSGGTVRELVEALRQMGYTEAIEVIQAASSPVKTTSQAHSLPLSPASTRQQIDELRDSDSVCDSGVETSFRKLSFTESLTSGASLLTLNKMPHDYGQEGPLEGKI
Nuclear factor NF-kappa-B complex (Homo sapiens), sequence (Q00653 whole entry, looked up): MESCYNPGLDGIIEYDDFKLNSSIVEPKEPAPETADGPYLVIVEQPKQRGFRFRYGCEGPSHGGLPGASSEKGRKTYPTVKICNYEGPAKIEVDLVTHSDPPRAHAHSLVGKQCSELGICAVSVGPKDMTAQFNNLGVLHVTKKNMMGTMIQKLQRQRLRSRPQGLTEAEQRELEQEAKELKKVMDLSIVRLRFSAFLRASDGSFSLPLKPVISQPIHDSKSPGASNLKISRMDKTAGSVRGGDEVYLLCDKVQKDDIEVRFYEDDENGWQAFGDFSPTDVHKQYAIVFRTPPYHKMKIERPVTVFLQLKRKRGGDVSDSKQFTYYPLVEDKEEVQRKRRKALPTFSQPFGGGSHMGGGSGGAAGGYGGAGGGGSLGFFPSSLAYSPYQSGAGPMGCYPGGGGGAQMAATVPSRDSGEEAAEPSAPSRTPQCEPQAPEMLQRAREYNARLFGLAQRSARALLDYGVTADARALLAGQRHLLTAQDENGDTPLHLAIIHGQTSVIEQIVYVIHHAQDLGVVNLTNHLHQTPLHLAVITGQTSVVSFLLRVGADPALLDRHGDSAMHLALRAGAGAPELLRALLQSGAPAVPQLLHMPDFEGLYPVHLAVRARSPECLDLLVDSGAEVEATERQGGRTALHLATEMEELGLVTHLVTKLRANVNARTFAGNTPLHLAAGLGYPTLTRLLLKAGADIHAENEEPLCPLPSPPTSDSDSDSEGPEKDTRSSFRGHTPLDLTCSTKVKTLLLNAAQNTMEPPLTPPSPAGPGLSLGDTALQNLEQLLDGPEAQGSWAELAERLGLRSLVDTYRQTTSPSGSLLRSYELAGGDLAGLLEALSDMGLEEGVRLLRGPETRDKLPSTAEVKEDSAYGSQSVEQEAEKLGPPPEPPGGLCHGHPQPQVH
Nuclear factor NF-kappa-B complex (Homo sapiens), sequence (Q04206 whole entry, looked up): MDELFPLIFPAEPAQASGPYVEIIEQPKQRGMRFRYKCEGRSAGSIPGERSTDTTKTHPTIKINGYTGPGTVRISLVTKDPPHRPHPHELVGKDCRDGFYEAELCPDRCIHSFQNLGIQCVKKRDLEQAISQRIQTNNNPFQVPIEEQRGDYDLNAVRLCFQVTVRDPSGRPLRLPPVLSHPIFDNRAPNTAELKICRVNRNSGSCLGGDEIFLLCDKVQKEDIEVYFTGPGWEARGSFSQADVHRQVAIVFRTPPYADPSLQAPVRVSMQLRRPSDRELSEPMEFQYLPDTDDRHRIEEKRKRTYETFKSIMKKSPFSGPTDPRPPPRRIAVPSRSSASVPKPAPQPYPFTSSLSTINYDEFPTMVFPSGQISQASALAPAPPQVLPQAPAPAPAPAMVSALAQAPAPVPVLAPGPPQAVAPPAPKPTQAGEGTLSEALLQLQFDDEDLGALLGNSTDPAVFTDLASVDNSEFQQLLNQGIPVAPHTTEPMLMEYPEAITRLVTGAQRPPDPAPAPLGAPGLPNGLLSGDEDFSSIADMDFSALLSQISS

[17] = tested on: MCF7; assay: Induction of apoptosis in human MCF7 cells assessed as viable cells preincubated for 4 hrs followed by ultrasonic sound treatment for 30 sec and measured after 24 hrs by Annexin V-FITC/propidium iodide double staining based flow cytometry analysis (reference value: […]); type: functional; conditions: 28 h
[18] = tested on: MCF7; assay: Induction of ROS generation in human MCF7 cells assessed as increase in red fluorescence incubated for 4 hrs by Hoechst 33342 staining based confocal microscopic analysis; type: functional, cell-based
[19] = Induction of hyperthermia in solvent assessed as increase in temperature at 10 uM treated with ultrasonic sound for 2 mins and measured after 5 mins; conditions: time 7.0 min
[20] = tested on: Mus musculus; assay: Induction of hyperthermia in BALB/c mouse xenografted with human MCF7 cells assessed as burning of skin at 1.2 mg/kg, iv administered for 10 days followed by ultrasonic sound treatment for 2 to 6 hrs and measured immediately; type: functional, organism-based; conditions: time 242-246 hrs
[21] = Toxicity in BALB/c mouse xenografted with human MCF7 cells assessed as spleen damage at 1.2 mg/kg, iv administered for 10 days and measured immediately by Hand E staining based analysis; type: organism-based; conditions: in vivo, 240 h, time 10 day
[22] = Toxicity in BALB/c mouse xenografted with human MCF7 cells assessed as lung damage at 1.2 mg/kg, iv administered for 10 days and measured immediately by Hand E staining based analysis; type: organism-based; conditions: in vivo, 240 h, time 10 day
[23] = Toxicity in BALB/c mouse xenografted with human MCF7 cells assessed as heart damage at 1.2 mg/kg, iv administered for 10 days followed by ultrasonic sound treatment for 2 to 6 hrs and measured immediately by Hand E staining based analysis; type: organism-based; conditions: in vivo, time 242-246 hrs
[24] = tested on: MCF7; assay: Effect of p38 protein level in human MCF7 cells at 10 uM measured for 24 hrs by ELISA analysis; type: functional, cell-based
[25] = Drug uptake in BALB/c mouse limb xenografted with human MCF7 cells assessed as accumulation of red fluorescence at 1.5 mg/kg, iv measured at 6 hrs by fluorescence imaging analysis; type: ADME, organism-based; conditions: in vivo
[26] = Drug uptake in BALB/c mouse tumor xenografted with human MCF7 cells assessed as accumulation of red fluorescence at 1.5 mg/kg, iv measured at 6 hrs by fluorescence imaging analysis; type: ADME, organism-based, Neoplasm; conditions: in vivo
[27] = Toxicity in BALB/c mouse xenografted with human MCF7 cells assessed as decrease in body weight at 1.5 mg/kg, iv administered for 10 days followed by ultrasonic sound treatment for 2 to 6 hrs and measured immediately; type: organism-based; conditions: in vivo, time 242-246 hrs
[28] = Toxicity in BALB/c mouse xenografted with human MCF7 cells assessed as heart damage at 1.2 mg/kg, iv administered for 10 days and measured immediately by Hand E staining based analysis; type: organism-based; conditions: in vivo, 240 h, time 10 day
[29] = Drug uptake in BALB/c mouse skin xenografted with human MCF7 cells assessed as accumulation of red fluorescence at 1.5 mg/kg, iv measured at 6 hrs by fluorescence imaging analysis; type: ADME, organism-based, Skin of body; conditions: in vivo
[30] = tested on: MCF7; assay: Effect of TNF-alpha protein level in human MCF7 cells at 10 uM measured for 24 hrs by ELISA analysis; type: functional, cell-based
[31] = Toxicity in BALB/c mouse xenografted with human MCF7 cells assessed as kidney damage at 1.2 mg/kg, iv administered for 10 days and measured immediately by Hand E staining based analysis; type: organism-based; conditions: in vivo, 240 h, time 10 day
[32] = Toxicity in BALB/c mouse xenografted with human MCF7 cells assessed as lung damage at 1.2 mg/kg, iv administered for 10 days followed by ultrasonic sound treatment for 2 to 6 hrs and measured immediately by Hand E staining based analysis; type: organism-based; conditions: in vivo, time 242-246 hrs
[33] = Toxicity in BALB/c mouse xenografted with human MCF7 cells assessed as drug tolerance at 1.5 mg/kg, iv administered for 10 days followed by ultrasonic sound treatment for 2 to 6 hrs and measured immediately; type: organism-based; conditions: in vivo, time 242-246 hrs
[34] = tested on: MCF7; assay: Effect of IL-6 protein level in human MCF7 cells at 10 uM measured for 24 hrs by ELISA analysis; type: functional, cell-based
[35] = Toxicity in BALB/c mouse xenografted with human MCF7 cells assessed as spleen damage at 1.2 mg/kg, iv administered for 10 days followed by ultrasonic sound treatment for 2 to 6 hrs and measured immediately by Hand E staining based analysis; type: organism-based; conditions: in vivo, time 242-246 hrs
[36] = Toxicity in BALB/c mouse xenografted with human MCF7 cells assessed as liver damage at 1.2 mg/kg, iv administered for 10 days and measured immediately by Hand E staining based analysis; type: organism-based; conditions: in vivo, 240 h, time 10 day
[37] = tested on: MCF7; assay: Antitumor activity against human MCF7 cells xenografted in BALB/c mouse assessed as tumor growth inhibition at 1.5 mg/kg, iv administered for 10 days followed by ultrasonic sound treatment for 2 to 6 hrs and measured immediately; type: functional; conditions: time 242-246 hrs, read-out: TGI
[38] = Toxicity in BALB/c mouse xenografted with human MCF7 cells assessed as liver damage at 1.2 mg/kg, iv administered for 10 days followed by ultrasonic sound treatment for 2 to 6 hrs and measured immediately by Hand E staining based analysis; type: organism-based; conditions: in vivo, time 242-246 hrs
[39] = Toxicity in BALB/c mouse xenografted with human MCF7 cells assessed as kidney damage at 1.2 mg/kg, iv administered for 10 days followed by ultrasonic sound treatment for 2 to 6 hrs and measured immediately by Hand E staining based analysis; type: organism-based; conditions: in vivo, time 242-246 hrs
[40] = Downregulation of IL-6 expression level in serum of BALB/c mouse at 1.5 mg/kg, iv measured at 12 to 24 hrs; type: functional; conditions: time 12-24 hrs

SMILES: C=CC1=C(C)c2cc3[nH]c(cc4nc(cc5[nH]c(cc1n2)c(C)c5CCC(=O)O)C(CCC(=O)O)=C4C)c(C)c3C=C
Activity [1]: Active

SMILES: COc1cc(/C=C/C(=O)CC(=O)/C=C/c2ccc(O)c(OC)c2)ccc1O
Activity [1]: Active

SMILES: COc1cc(/C=C/c2ccc(N(c3ccc(Br)cc3)c3ccc(-c4ccc(-c5cccs5)c5nsnc45)cc3)cc2)cc(OC)c1
Activity [2]: Active | pEC50 [3]: 7.14 | inhibition at 10 µM [4]: 48% | Activity [5]: inactive | Activity [6]: 48.1% | Activity [7]: 1.74% | pIC50 [8]: 5.70 | Activity [9]: inactive | pIC50 [10]: 5.92 | Activity [11]: 4.37% | pIC50 [12]: 5.38 | Activity [13]: 87.5% | pIC50 [14]: 5.04 | Activity [15]: 4.5% | inhibition [16]: Active | Activity [17]: 56.4% | Activity [18]: Active | T [19]: 3.4 °C

Further lines, with some results ahead:

pEC50 [3]: 6.66 | inhibition [16]: Active
SMILES: COc1cc(/C=C/c2ccc(N(c3ccc(/C=C/c4cc(OC)cc(OC)c4)cc3)c3ccc(-c4ccc(-c5ccc(N(c6ccc(/C=C/c7cc(OC)cc(OC)c7)cc6)c6ccc(/C=C/c7cc(OC)cc(OC)c7)cc6)cc5)c5nsnc45)cc3)cc2)cc(OC)c1
Activity [2]: Active | inhibition at 10 µM [4]: 72% | Activity [5]: inactive | pIC50 [1]: 5.46 | Activity [6]: 97.5% | Activity [7]: 3.59% | pIC50 [8]: 6.08 | Activity [9]: inactive | pIC50 [10]: 6.21 | Activity [11]: 2.33% | pIC50 [12]: 5.46 | Activity [13]: 28.7% | pIC50 [14]: 5.44 | Activity [15]: 5.8% | Activity [17]: 35.4% | Activity [18]: Active | T [19]: 5.9 °C

pEC50 [3]: 7.16 | Drug uptake [25]: Active | Drug uptake [26]: Active | Drug uptake [29]: Active | inhibition [16]: Active
SMILES: COc1cc(/C=C/c2ccc(N(c3ccccc3)c3ccc(-c4ccc(-c5ccc(N(c6ccccc6)c6ccc(/C=C/c7cc(OC)cc(OC)c7)cc6)cc5)c5nsnc45)cc3)cc2)cc(OC)c1
Activity [2]: Active | Activity [20]: Active | Activity [21]: Non-Toxic | inhibition at 10 µM [4]: 76% | Activity [5]: inactive | pIC50 [1]: 5.80 | Activity [6]: 92.8% | Activity [22]: Non-Toxic | Activity [7]: 0.29% | pIC50 [8]: 6.26 | Activity [23]: Non-Toxic | Activity [24]: Active | Activity [27]: Non-Toxic | Activity [9]: inactive | pIC50 [10]: 6.54 | Activity [11]: 0.045% | Activity [28]: Non-Toxic | pIC50 [12]: 5.80 | Activity [30]: Active | Activity [31]: Non-Toxic | Activity [13]: 70% | Activity [32]: Non-Toxic | Activity [33]: Non-Toxic | pIC50 [14]: 5.62 | Activity [34]: Active | Activity [15]: 12.4% | Activity [17]: 29.7% | Activity [35]: Non-Toxic | Activity [36]: Non-Toxic | Activity [18]: Active | inhibition in vivo at 1.5 mg/kg [37]: 70% | Activity [38]: Non-Toxic | Activity [39]: Non-Toxic | T [19]: 3.9 °C | Activity [40]: 42%

Reference: ChEMBL document CHEMBL5338750, “Design of Sonosensitizers Integrated with Resveratrol Motif for Synergetic Sonodynamic Therapy and Nuclear Factor Kappa B Transcription Suppression of Breast Cancer” (J Med Chem, 2023)
